Data published in patent US9388147B2 (Receptos, Inc., priority 2009, dated 2016).

Biological target: S1P1/EDG1 (Homo sapiens, UniProt P21453)
Experiment: S1P1 CRE-bla CHOK1 reporter assay, inhibition of Forskolin induced cAMP
Type: cell-based
Conditions: agonist activity range, S1P1 CRE-bla CHOK1, 2 μM Forskolin; read-out: S1P1 ACTIVITY
Method: Generation of S1P1-Mediated Inhibition of cAMP Reporter Assay
A mammalian expression plasmid containing S1P1/EDG1 cloned into pcDNA3.1 was purchased from Missouri S&T cDNA Resource Centre. […] S1P1/pcDNA3.1 was transfected into the CRE-bla CHO K1 (Invitrogen) cell line, and stable single cell clones were selected using standard techniques.
S1P1 CRE-Bla CHOK1 Reporter Assay—Characterization of S1P1 Agonists
Cells were seeded into 384-well black wall/clear bottom plates at 10^4 cells/well/19.5 μl assay media (DMEM-phenol free, 0.5% charcoal/dextran stripped serum, 2 mM glutamine, 0.1 mM NEAA, 1 mM Na-Pyruvate, 25 mM Hepes) and incubated for 18 hrs at 37° C. in 5% CO2. Dose response curves (10-point) were generated in 10 mM Hepes, 0.1% Pluronic F127, in the presence of Forskolin. Cells were treated with 0.5 μl compound in the presence of 2 μM Forskolin for 4 hrs at 37° C. The FRET-based β-lactamase fluorescent substrate (LiveBLAzer™-FRET B/G Loading Kit CC4-AM; Invitrogen) was prepared according to manufacturer's directions, and incubated with cells for 2 hrs at room temperature. […] Data was analyzed by non-linear regression to determine the EC50 for inhibition of Forskolin induced cAMP.

S1P1/EDG1, sequence (P21453 whole entry): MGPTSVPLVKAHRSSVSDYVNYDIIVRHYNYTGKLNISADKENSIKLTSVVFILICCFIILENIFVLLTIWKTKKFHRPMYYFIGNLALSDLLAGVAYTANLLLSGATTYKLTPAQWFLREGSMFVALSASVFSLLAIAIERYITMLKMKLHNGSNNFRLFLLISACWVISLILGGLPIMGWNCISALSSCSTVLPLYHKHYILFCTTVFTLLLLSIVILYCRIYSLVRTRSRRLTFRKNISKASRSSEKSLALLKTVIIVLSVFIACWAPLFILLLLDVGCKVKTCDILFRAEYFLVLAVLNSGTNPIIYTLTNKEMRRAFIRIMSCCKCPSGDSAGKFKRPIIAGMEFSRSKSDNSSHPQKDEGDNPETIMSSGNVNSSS

| SMILES | EC50 |
| --- | --- |
| CC(C)Oc1ccc(-c2nc(-c3cccc4c3CC[C@H]4NCC(=O)N3CCC3)no2)cc1C#N [Compound 128] | 0.05 to 0.5 nM |
| CCOc1ccc(-c2nc(-c3cccc4c3CC[C@H]4N)no2)cc1C#N [Compound 94] | 0.5 to 5 nM |
| CCOCCS(=O)(=O)N[C@@H]1CCc2c(-c3noc(-c4ccc(OC(C)C)c(C#N)c4)n3)cccc21 [Compound 165] | 0.05 to 0.5 nM |
| COC(=O)N[C@@H]1CCc2c(-c3noc(-c4ccc(OC(C)C)c(C#N)c4)n3)cccc21 [Compound 149, (R)-methyl (4-(5-(3-cyano-4-isopropoxyphenyl)-1,2,4-oxadiazol-3-yl)-2,3-dihydro-1H-inden-1-yl)carbamate] | 0.05 to 0.5 nM |
| CC(C)Oc1ccc(-c2nc(-c3cccc4c3CC[C@@H]4N(C)C(=O)CO)no2)cc1C#N [Compound 110] | 0.05 to 0.5 nM |
| CC(C)Oc1ccc(-c2nc(-c3cccc4c3CC[C@H]4N[C@@H](C)CO)no2)cc1C#N [Compound 54, 5-(3-((R)-1-(((S)-1-hydroxypropan-2-yl)amino)-2,3-dihydro-1H-inden-4-yl)-1,2,4-oxadiazol-5-yl)-2-isopropoxybenzonitrile] | 0.05 to 0.5 nM |
| COCCNC1CCc2c(-c3noc(-c4ccc(OC(C)C)c(C#N)c4)n3)cccc21 (stereo in doubt) [Compound 88] | 0.5 to 5 nM |
| CCOc1ccc(-c2nc(-c3cccc4c3CC[C@@H]4O)no2)cc1C(F)(F)F [Compound 10] | 0.05 to 0.5 nM |
| CC(C)Oc1ccc(-c2nc(-c3cccc4c3CC[C@H]4N3CCOC3=O)no2)cc1C#N [Compound 154, (R)-2-isopropoxy-5-(3-(1-(2-oxooxazolidin-3-yl)-2,3-dihydro-1H-inden-4-yl)-1,2,4-oxadiazol-5-yl)benzonitrile] | 0.05 to 0.5 nM |
| CC(C)Oc1ccc(-c2nc(-c3cccc4c3CC[C@@H]4N(C)CC(=O)O)no2)cc1C#N [Compound 208] | 0.05 to 0.5 nM |
| COC(=O)CCNC1CCc2c(-c3noc(-c4ccc(OC(C)C)c(C#N)c4)n3)cccc21 (racemic) [Compound 35] | 0.05 to 0.5 nM |
| CNCCS(=O)(=O)N[C@H]1CCc2c(-c3noc(-c4ccc(OC(C)C)c(C#N)c4)n3)cccc21 [Compound 74] | 0.05 to 0.5 nM |
| CC(C)Oc1ccc(-c2nc(-c3cccc4c3CCC4N3CC(C(=O)O)C3)no2)cc1C#N (racemic) [Compound 18, 1-(4-(5-(3-cyano-4-isopropoxyphenyl)-1,2,4-oxadiazol-3-yl)-2,3-dihydro-1H-inden-1-yl)azetidine-3-carboxylic acid] | < 0.05 nM |
| CN[C@@H]1CCc2c(-c3noc(-c4ccc(OC(C)C)c(C#N)c4)n3)cccc21 [Compound 143] | 0.05 to 0.5 nM |
| CC(C)Oc1ccc(-c2nc(-c3cccc4c3CC[C@H]4NC(=O)N3CCC(CO)CC3)no2)cc1C#N [Compound 217] | 0.5 to 5 nM |
| CC(C)Oc1ccc(-c2nc(-c3cccc4c3CC[C@H]4NCC(=O)N3CCCC3)no2)cc1C#N [Compound 129] | 0.05 to 0.5 nM |
| CC(C)Oc1ccc(-c2nc(-c3cccc4c3CC[C@H]4NCCS(C)(=O)=O)no2)cc1C#N [Compound 125, (R)-2-isopropoxy-5-(3-(1-((2-(methylsulfonyl)ethyl)amino)-2,3-dihydro-1H-inden-4-yl)-1,2,4-oxadiazol-5-yl)benzonitrile] | 0.05 to 0.5 nM |
| CC(C)Oc1ccc(-c2nc(-c3cccc4c3CCC4NCCN3CCCCC3)no2)cc1C#N (racemic) [Compound 20] | > 5 nM |
| COC(=O)C1CN(C2CCc3c(-c4noc(-c5ccc(OC(C)C)c(C#N)c5)n4)cccc32)C1 (racemic) [Compound 36] | 0.05 to 0.5 nM |

| SMILES | EC50 |
| --- | --- |
| CC(C)Oc1ccc(-c2nc(-c3cccc4c3CC[C@@H]4NS(=O)(=O)CC(=O)O)no2)cc1C#N [Compound 71, (S)-2-(N-(4-(5-(3-cyano-4-isopropoxyphenyl)-1,2,4-oxadiazol-3-yl)-2,3-dihydro-1H-inden-1-yl)sulfamoyl)acetic acid] | 0.05 to 0.5 nM |
| CC(C)Oc1ccc(-c2nc(-c3cccc4c3CC[C@@H]4NS(=O)(=O)CCC(=O)O)no2)cc1C#N [Compound 185] | < 0.05 nM |
| CC(C)Oc1ccc(-c2nc(-c3cccc4c3CC[C@H]4NS(=O)(=O)C3CC3)no2)cc1C#N [Compound 166] | 0.05 to 0.5 nM |
| CC(C)Oc1ccc(-c2nc(-c3cccc4c3CCC4N[C@@H](C)c3ccccc3)no2)cc1C#N (stereo in doubt) [Compound 123] | > 5 nM |
| CC(C)Oc1ccc(-c2nc(-c3cccc4c3CCC4NCCN)no2)cc1C#N (racemic) [Compound 29] | 0.05 to 0.5 nM |
| CC(C)Oc1ccc(-c2nc(-c3cccc4c3CC[C@@H]4NC(=O)N3CC[C@H](N)C3)no2)cc1C#N [Compound 224] | 0.5 to 5 nM |
| CC(C)Oc1ccc(-c2nc(-c3cccc4c3CC[C@H]4NCC(=O)NCCO)no2)cc1C#N [Compound 135] | 0.05 to 0.5 nM |
| COC(=O)CCS(=O)(=O)N[C@H]1CCc2c(-c3noc(-c4ccc(OC(C)C)c(C#N)c4)n3)cccc21 [Compound 182] | 0.05 to 0.5 nM |
| CC(C)Oc1ccc(-c2nc(-c3cccc4c3CC[C@H]4NCCO)no2)cc1Br [Compound 101] | 0.5 to 5 nM |
| COC(=O)CC1CCN(C(=O)N[C@@H]2CCc3c(-c4noc(-c5ccc(OC(C)C)c(C#N)c5)n4)cccc32)CC1 [Compound 225] | 0.5 to 5 nM |
| CC(C)Oc1ccc(-c2nc(-c3cccc4c3CCC4NC[C@H](O)CO)no2)cc1C#N (mixture of isomers) [Compound 41] | 0.05 to 0.5 nM |
| CNCCS(=O)(=O)NC1CCc2c(-c3noc(-c4ccc(OC(C)C)c(C#N)c4)n3)cccc21 (stereo in doubt) [Compound 75] | 0.5 to 5 nM |
| COC(=O)CCCCNC1CCc2c(-c3noc(-c4ccc(OC(C)C)c(C#N)c4)n3)cccc21 (racemic) [Compound 147] | < 0.05 nM |
| CC(C)Oc1ccc(-c2nc(-c3cccc4c3CC[C@@H]4N[C@@H](C)CO)no2)cc1C#N [Compound 53, 5-(3-((S)-1-(((S)-1-hydroxypropan-2-yl)amino)-2,3-dihydro-1H-inden-4-yl)-1,2,4-oxadiazol-5-yl)-2-isopropoxybenzonitrile] | 0.5 to 5 nM |
| CC(=O)N(CCO)[C@@H]1CCc2c(-c3noc(-c4ccc(OC(C)C)c(C#N)c4)n3)cccc21 [Compound 113] | 0.5 to 5 nM |
| CC(C)Oc1ccc(-c2nc(-c3cccc4c3CC[C@H]4NCC(=O)N3CCN(C)CC3)no2)cc1C#N [Compound 132] | 0.5 to 5 nM |
| CC(C)Oc1ccc(-c2nc(-c3cccc4c3CCC4NCCN3CCOCC3)no2)cc1C#N (racemic) [Compound 21] | 0.5 to 5 nM |
| CC(C)Oc1ccc(-c2nc(-c3cccc4c3CCC4NCCN3CCNCC3)no2)cc1C#N (racemic) [Compound 25] | > 5 nM |
| CC(C)Oc1ccc(-c2nc(-c3cccc4c3CC[C@@H]4NCc3cncs3)no2)cc1C#N [Compound 161] | 0.05 to 0.5 nM |

| SMILES | EC50 |
| --- | --- |
| N#Cc1cc(-c2nc(-c3cccc4c3CCC4NCCO)no2)ccc1OC[C@@H](O)CO (mixture of isomers) [Compound 104] | > 5 nM |
| CC(C)Oc1ccc(-c2nc(-c3cccc4c3CCC4N3CC[C@H](O)C3)no2)cc1C#N (mixture of isomers) [Compound 34] | 0.5 to 5 nM |
| CC(C)Oc1ccc(-c2nc(-c3cccc4c3CC[C@H]4NS(=O)(=O)CC(=O)N3CC(O)C3)no2)cc1C#N [Compound 190] | < 0.05 nM |
| CC(C)Oc1ccc(-c2nc(-c3cccc4c3CC[C@H]4NS(=O)(=O)CC(=O)N3CCOCC3)no2)cc1C#N [Compound 192] | < 0.05 nM |
| CC(C)Oc1ccc(-c2nc(-c3cccc4c3CC[C@@H]4NCCCCC(=O)O)no2)cc1C#N [Compound 148] | < 0.05 nM |
| CC(C)Oc1ccc(-c2nc(-c3cccc4c3CC[C@H]4NCc3ccccc3)no2)cc1C#N [Compound 156] | 0.5 to 5 nM |
| CC(=O)OCCNC1CCc2c(-c3noc(-c4ccc(OC(C)C)c(C#N)c4)n3)cccc21 (racemic) [Compound 37] | 0.05 to 0.5 nM |
| CC(C)Oc1ccc(-c2nc(-c3cccc4c3CC[C@@H]4NC(=N)N)no2)cc1C#N [Compound 250] | 0.05 to 0.5 nM |
| CC(C)Oc1ccc(-c2nc(-c3cccc4c3CC[C@@H]4NC(=O)N3CCC(CC(=O)O)CC3)no2)cc1C#N [Compound 229] | 0.05 to 0.5 nM |
| CC(C)Oc1ccc(-c2nc(-c3cccc4c3CC[C@H]4NS(=O)(=O)CCN3CCCCC3)no2)cc1C#N [Compound 175] | 0.5 to 5 nM |
| CC(C)Oc1ccc(-c2nc(-c3cccc4c3CC[C@@H]4NC(=O)N3CC[C@H](O)C3)no2)cc1C#N [Compound 233] | 0.05 to 0.5 nM |
| CC(C)Oc1ccc(-c2nc(-c3cccc4c3CC[C@@H]4NS(=O)(=O)CC(N)=O)no2)cc1C#N [Compound 196] | < 0.05 nM |
| CC(C)Oc1ccc(-c2nc(-c3cccc4c3CC[C@H]4NC(=O)CN(C)C)no2)cc1C#N [Compound 67] | 0.05 to 0.5 nM |
| CC(C)Oc1ccc(-c2nc(-c3cccc4c3CCC4NC3CCOCC3)no2)cc1C#N (racemic) [Compound 23] | 0.5 to 5 nM |
| CC(C)Oc1ccc(-c2nc(-c3cccc4c3CC[C@@H]4NC(=O)N3CC[C@@H](N)C3)no2)cc1C#N [Compound 223] | 0.5 to 5 nM |
| CC(C)Oc1ccc(-c2nc(-c3cccc4c3CC[C@H]4NS(=O)(=O)CCCO)no2)cc1C#N [Compound 188] | < 0.05 nM |
| CC(C)Oc1ccc(-c2nc(-c3cccc4c3CC[C@@H]4N3CC(C(=O)N(C)C)C3)no2)cc1C#N [Compound 205] | 0.05 to 0.5 nM |
| COCCN[C@H]1CCc2c(-c3noc(-c4ccc(OC(C)C)c(C#N)c4)n3)cccc21 [Compound 89] | 0.05 to 0.5 nM |
